Laboratory results as given in patent US20040092402A1, “Pyrimidine derivatives and herbicides containing the same” (priority 2000, published 2004).
“And” between values parts separate entries of the source, which are not always exact repeats. Equal entries are not always repeated.

Compound | melting point
C#CCOc1cc(-c2ncnc(C(F)(F)F)c2Cl)c(F)cc1Cl [A-3, 5-Chloro-4-(4-chloro-2-fluoro-5-propargyloxyphenyl)-6-trifluoromethylpyrimidine] | 112 to 113 °C
CCS(=O)(=O)Nc1cc(-c2ncnc(C(F)F)c2Cl)c(F)cc1C#N [D-26, 5-Chloro-4-[4-cyano-5-(ethylsulfonylamino)-2-fluoro-phenyl]-6-difluoromethylpyrimidine] | 200 to 202 °C
CCS(=O)(=O)Nc1cc(-c2ncnc(C(F)F)c2Cl)c(F)cc1Cl [D-14, 5-Chloro-4-(4-chloro-5-ethylsulfonylamino-2-fluoro-phenyl)-6-difluoromethylpyrimidine] | 138 to 139 °C
CCS(=O)(=O)Nc1cc(-c2ncnc(C(F)(F)F)c2Cl)c(F)cc1C#N [A-16, 5-chloro-4-[4-cyano-5-(N-ethanesulfonylamino)-2-fluorophenyl]-6-trifluoromethylpyrimidine] | 188 to 189 °C and 191 to 194 °C
C=CCOc1cc(-c2ncnc(C(F)F)c2Cl)c(F)cc1Cl [D-2, 4-(5-Allyloxy-4-chloro-2-fluorophenyl)-5-chloro-6-difluoromethylpyrimidine] | 69 to 71 °C and 67 to 71 °C
CCS(=O)(=O)Nc1cc(-c2ncnc(C(F)F)c2Cl)c(Cl)cc1Cl [D-16, 5-Chloro-4-(2,4-dichloro-5-ethylsulfonylaminophenyl)-6-difluoromethylpyrimidine] | 140 to 142 °C
C#CCSc1cc(-c2ncnc(C(F)F)c2Cl)c(F)cc1Cl [D-48, 5-Chloro-4-(4-chloro-2-fluoro-5-propargylthio-phenyl)-6-difluoromethylpyrimidine] | 95 to 97 °C
CC(C)NS(=O)(=O)c1cc(-c2ncnc(C(F)F)c2Cl)c(F)cc1Cl [D-50, 2-Chloro-5-(5-chloro-6-difluoromethylpyrimidin-4-yl)-4-fluoro-N-isopropylbenzenesulfonamide] | 172 to 175 °C
COC(=O)c1cc(-c2ncnc(C(F)F)c2Cl)c(F)cc1Cl [D-41, 2-Chloro-4-fluoro-5-(5-chloro-6-difluoromethyl-pyrimidin-4-yl)benzoic acid methyl ester] | 100 to 101 °C
COc1cc(-c2ncnc(C(F)(F)F)c2Cl)c(F)cc1Cl [A-1, 5-chloro-4-(4-chloro-2-fluoro-5-methoxyphenyl)-6-trifluoromethylpyrimidine] | 112 to 113 °C and 109 to 111 °C
Fc1cc(Cl)c(OC(F)F)cc1-c1ncnc(C(F)F)c1Cl [D-7, 5-Chloro-4-[4-chloro-2-fluoro-5-(difluoromethoxy)phenyl]-6-difluoromethylpyrimidine] | 56 to 57 °C
CC(=O)Nc1cc(-c2ncnc(C(F)F)c2Cl)c(F)cc1C#N [D-21, 4-(5-Acetylamino-4-cyano-2-fluorophenyl)-5-chloro-6-difluoromethylpyrimidine] | 160 to 162 °C
CCS(=O)(=O)N(C(C)=O)c1cc(-c2ncnc(C(F)F)c2Cl)c(F)cc1C#N [D-27, 4-[5-(N-acetyl-N-ethylsulfonylamino)-4-cyano-2-fluorophenyl]-5-chloro-6-difluoromethylpyrimidine] | 121 to 122 °C
CCS(=O)(=O)N(C(C)=O)c1cc(-c2ncnc(C(F)(F)F)c2Cl)c(F)cc1C#N [A-23, 4-[5-(N-acetyl-N-ethanesulfonylamino)-4-cyano-2-fluorophenyl]-5-chloro-6-trifluoromethylpyrimidine] | 144 to 146 °C

Results, then the compound that gave them:

melting point | Compound
149 to 150 °C | CCS(=O)(=O)Nc1cc(-c2ncnc(Cl)c2Cl)c(F)cc1C#N [H-16, 4,5-Dichloro-6-[4-cyano-5-(ethylsulfonylamino)-2-fluorophenyl]pyrimidine]
144 to 146 °C | COc1cc(-c2ncnc(C(F)(F)F)c2C)c(F)cc1Cl [J-5, 4-(4-Chloro-2-fluoro-5-methoxyphenyl)-5-methyl-6-trifluoromethylpyrimidine]
156 to 157 °C | COC1(F)C=C(Cl)C=CC1c1ncnc(C)c1C (stereo not shown) [J-1, 4-(4-Chloro-2-fluoro-2-methoxyphenyl)-5,6-dimethyl-pyrimidine]
160 to 162 °C | COc1ncnc(-c2cc(NS(C)(=O)=O)c(Cl)cc2Cl)c1C#N [K-20, 4-(2,4-Dichloro-5-methylsulfonylaminophenyl)-5-cyano-6-methoxypyrimidine]
211 to 212 °C | CCS(=O)(=O)Nc1cc(C2(NC)NC=NC=C2Cl)c(F)cc1C#N (stereo not shown) [H-20, 5-Chloro-6-[4-cyano-5-(ethylsulfonylamino)-2-fluoro-phenyl]-6-methylaminopyrimidine]
160 to 162 °C | CCS(=O)(=O)Nc1cc(-c2ncnc(C(C)C)c2Cl)c(F)cc1C#N [E-13, 5-Chloro-4-[4-cyano-5-(ethylsulfonylamino)-2-fluoro-phenyl]-6-isopropylpyrimidine]
161 to 163 °C | COc1cc(-c2ncnc(OC)c2C=O)c(F)cc1Cl [L-1, 4-(4-Chloro-2-fluoro-5-methoxyphenyl)-5-formyl-6-methoxypyrimidine]
142 to 143 °C | COc1cc(-c2ncnc(OC)c2Cl)c(F)cc1Cl [H-1, 5-Chloro-4-(4-chloro-2-fluoro-5-methoxyphenyl)-6-methoxypyrimidine]
86 to 88 °C | C#CCOc1cc(-c2ncnc(C(Cl)Cl)c2Cl)c(F)cc1Cl [E-19, 5-Chloro-4-(4-chloro-2-fluoro-5-propargyloxyphenyl)-6-dichloromethylpyrimidine]
183 to 185 °C | COc1cc(-c2ncnc(OC)c2C#N)c(F)cc1Cl [K-1, 4-(4-Chloro-2-fluoro-5-methoxyphenyl)-5-cyano-6-methoxypyrimidine]
77 to 79 °C | Cc1ncnc(-c2ccc(Cl)cc2F)c1Cl [E-1, 4-(4-Chloro-2-fluorophenyl)-5-chloro-6-methyl-pyrimidine]
142 to 144 °C | COC(=O)c1cc(-c2ncnc(C)c2C#N)c(F)cc1Cl [K-19, Methyl 2-chloro-5-(5-cyano-6-methylpyrimidin-4-yl)-4-fluorobenzoate]
123 to 124 °C | CCS(=O)(=O)N(C(C)=O)c1cc(-c2ncnc(C(F)F)c2Cl)c(F)cc1C#N [J-14, 4-[5-(N-acetyl-N-ethylsulfonylamino)-4-cyano-2-fluorophenyl]-5-chloro-6-difluoromethylpyrimidine]
188 to 189 °C | CCS(=O)(=O)Nc1cc(-c2ncnc(NOC)c2Cl)c(F)cc1C#N [H-27, 5-Chloro-4-[4-cyano-5-(ethylsulfonylamino)-2-fluoro-phenyl]-6-methoxyaminopyrimidine]
187 to 189 °C | CCS(=O)(=O)Nc1cc(-c2ncnc(OC)c2C#N)c(F)cc1C#N [K-3, 4-(4-Cyano-5-ethylsulfonylamino-2-fluorophenyl)-5-cyano-6-methoxypyrimidine]
131 to 133 °C | C#CCOc1cc(-c2ncnc(C)c2C)c(F)cc1Cl [J-3, 4-(4-Chloro-2-fluoro-5-propargyloxyphenyl)-5,6-dimethyl pyrimidine]
218 to 220 °C | COc1ncnc(-c2cc(NS(C)(=O)=O)c(C#N)cc2F)c1C [J-16, 4-(4-cyano-5-methylsulfonylamino-2-fluorophenyl)-6-methoxy-5-methylpyrimidine]
149 to 150 °C | CCS(=O)(=O)Nc1cc(-c2ncnc(OC)c2Cl)c(F)cc1C#N [H-7, 5-Chloro-4-[4-cyano-5-(ethylsulfonylamino)-2-fluorophenyl]-6-methoxypyrimidine]
182 to 184 °C | CCS(=O)(=O)Nc1cc(-c2ncnc(C)c2Cl)c(F)cc1C#N [E-10, 5-Chloro-4-[4-cyano-5-(ethylsulfonylamino)-2-fluoro-phenyl]-6-methylpyrimidine]
90 to 92 °C | C#CCOc1cc(-c2ncnc(C(F)(F)F)c2C)c(F)cc1Cl [J-7, 4-(4-Chloro-2-fluoro-5-propargyloxyphenyl)-5-methyl-6-trifluoromethylpyrimidine]
